These results are taken from patent EP3868394A1, “MONO- AND MULTI-TRIAZOLOMINIGASTRINS FOR TARGETING OF CCK2R-POSITIVE NEOPLASMS” (PAUL SCHERRER INSTITUT, priority 2020, dated 2021).

Read-outs that look alike come from different tables or passages of the source. Numbered stars: 1 amine (or outer) side, 2 acyl side, 3 side chain; on linkers, the order of the positions; unused ones are H or OH. Square brackets hold non-standard residues; d marks the D form. Peptide text beside a SMILES is read from it. * marks the point of attachment. DOTA = O=C(O)CN1CCN(CC(=O)O)CCN(CC(=O)*)CCN(CC(=O)O)CC1; X1 = O=C(Cn1cc([C@H](Cc2ccc(O)cc2)N[*:1])nn1)[*:2]; Nle = CCCC[C@H](N)C(=O)O

One series is described as follows: Blood plasma stability. The class given is in vitro ADME, human. On the procedure: Stock solutions were prepared by dissolving the reference substances (Nle^15]-MG11 and PP-F11-N) or the triazolominigastrins (1 mg, 750 nmol) in ammonium acetate buffer (50 µL, 0.5 M, pH 5.5) and addition of water to a final peptide concentration of 250 µM (approx. 0.3 mg/mL). For in vitro experiments, DOTA-functionalized compounds (1 nmol, 4 µL of 250 µM stock solution) were added to a mixture of aq. HCl (22.5 µL, 0.05 M, pH 1.3), ammonium acetate buffer (10 µL, 0.5 M, pH 5.5) and aq. sodium ascorbate (5 µL, 0.5 M). 20-25 MBq of [^177Lu]LuCl3 (ca. 2.5 µL, in 0.04 M HCl, 20-25 MBq/nmol) were added and the mixtures were heated to 95 °C for 20 min in a heating block. After labeling, a 1 µL aliquot of the labeling mixture was added to aq. DTPA (200 µL, 25 µM) for quality control by γ-HPLC.
The ^177Lu-labeled compounds were diluted with 0.9% NaCl to a concentration of 3.75 µM and incubated (375 pmol, 100 µL, 7.5-12 MBq) in human blood plasma (1.5 mL) at 37 °C. At different time points (0.5, 1, 2, 4, 6 and 24 h) aliquots (75 µL) were taken and the proteins were precipitated in CH3CN (100 µL) and centrifuged (2 min, 14680 rpm, rt). The supernatant (75 µL) was diluted with water (75 µL) and analyzed by γ-HPLC. One phase decay nonlinear regression (A = A0 ^∗ e^-kt) was used to calculate the half-lifes (t1/2) of the peptide conjugates with GraphPad Prism (n=2-3).

The subject of another series is CCK2R-positive tumors. The conditions noted are these: cited from earlier work.
A further series concerns A431-CCK2R cells. Nature of the series: Cell internalization experiments with 177Lu-labeled conjugates. It counts as cell-based, Human. The protocol:
Stock solutions were prepared by dissolving the reference substances (Nle^15]-MG11 and PP-[…]) or the triazolominigastrins (1 mg, 750 nmol) in ammonium acetate buffer (50 μL, 0.5 M, pH 5.5) and addition of water to a final peptide concentration of 250 μM (approx. 0.3 mg/mL). For in vitro experiments, DOTA-functionalized compounds (1 nmol, 4 μL of 250 μM stock solution) were added to a mixture of aq. HCl (22.5 μL, 0.05 M, pH 1.3), ammonium acetate buffer (10 μL, 0.5 M, pH 5.5) and aq. sodium ascorbate (5 μL, 0.5 M). 20-25 MBq of [^177Lu]LuCl3 (ca. 2.5 μL, in 0.04 M HCl, 20-25 MBq/nmol) were added and the mixtures were heated to 95 °C for 20 min in a heating block. After labeling, a 1 μL aliquot of the labeling mixture was added to aq. DTPA (200 μL, 25 μM) for quality control by γ-HPLC. Human epidermoid carcinoma cells A431 stably transfected to express the CCK2R (A431-CCK2R cells)[Aloj L., Journal of Nuclear Medicine, 2004, 45, 485-494] were grown in monolayers in NunclonTM Delta treated cell culture flasks in humidified air at 5% CO2 and 37 °C. The cells were maintained in the culture medium DMEM (high glucose (4.5 g/L)) supplemented with 20 mM L-Gln and 10% FCS. The culture was passaged regularly at 80 to 90% confluency using a 0.25% trypsin 0.38‰ EDTA solution. Assays were conducted in the assay medium DMEM (high glucose) containing 0.1% BSA. On the day prior to the experiment A431-CCK2R cells were placed in six-well plates (0.85·10^6 cells/well) in cell culture medium and incubated overnight for attachment. On the day of the experiment, the medium was removed and the cells were washed twice with 1 mL PBS. The plates were put on ice for preparation. 0.9 mL of assay medium was dispensed to all wells except the ones for nonspecific binding. 0.2 pmol of ^177Lu-labeled conjugates (100 μL, 2 nM in assay medium, ca. 4.2 kBq) were dispensed to all wells. For the determination of nonspecific binding, a 5000-fold excess of […] (1 nmol, 100 μL, 10 μM in assay medium) was added to 0.8 mL of assay medium containing the ^177Lu-labeled conjugates. The plates were incubated at 37 °C in 5% CO2 to allow binding and internalization. The process was stopped after 30, 60, 120, and 240 min by collection of the supernatant. The cells were washed twice with PBS (each 0.6 mL). The combined supernatants represent the free, unbound fraction of radioactivity. Membrane-bound activity was determined by incubating the cells with cold saline glycine buffer (0.6 mL, 0.05 M, pH 2.8) twice for 5 min at rt. The internalized fraction was isolated by two cycles of cell lysis with NaOH (each 0.6 mL, 1 M, 10 min, rt). The radioactivity of the fractions was measured by a COBRA-II gamma counter and is represented as percentage of total applied radioactivity dosage (n=3-5 in triplicates).

[1] abbreviates: compared with PP-F11N, Figure 1.
The mark [2] stands for this setting: compared with [Nle^15]MG11, Figure 1.

For `CCCC[C@H](NC(=O)[C@H](Cc1c[nH]c2ccccc12)NC(=O)Cn1cc([C@H](Cc2ccc(O)cc2)NC(=O)[C@H](C)NC(=O)[C@@H](CCC(=O)O)NC(=O)[C@@H](CCC(=O)O)NC(=O)[C@@H](CCC(=O)O)NC(=O)[C@@H](CCC(=O)O)NC(=O)[C@@H](CCC(=O)O)NC(=O)[C@@H](CCC(=O)O)NC(=O)CN2CCN(CC(=O)O)CCN(CC(=O)O)CCN(CC(=O)O)CC2)nn1)C(=O)N[C@@H](CC(=O)O)C(=O)N[C@@H](Cc1ccccc1)C(N)=O` [NMG 6, DOTA-(DGlu)5-DGlu-Ala-Tyr-Ψ[Tz]-Gly-Trp-Nle-Asp-Phe-NH2], in “Blood plasma stability”, the “stability in plasma over 24 hours” value is “high stability”.
As for `CCCC[C@H](NC(=O)[C@H](Cc1c[nH]c2ccccc12)NC(=O)CNC(=O)[C@H](Cc1ccc(O)cc1)NC(=O)[C@H](C)NC(=O)[C@@H](CCC(=O)O)NC(=O)[C@@H](CCC(=O)O)NC(=O)[C@@H](CCC(=O)O)NC(=O)[C@@H](CCC(=O)O)NC(=O)[C@@H](CCC(=O)O)NC(=O)[C@@H](CCC(=O)O)NC(=O)CN1CCN(CC(=O)O)CCN(CC(=O)O)CCN(CC(=O)O)CC1)C(=O)N[C@@H](CC(=O)O)C(=O)N[C@@H](Cc1ccccc1)C(N)=O` [PP-F11N, reference compound], the “stability in plasma over 24 hours” value in “Blood plasma stability” (177Lu-labeled, human blood plasma, 37 °C, over 24 hours, Figure 3) is recorded as “high stability”. In addition, in the series with CCK2R-positive tumors (according to WO 2015/067473 A1), the tumor-to-kidney ratio entry was “excellent”.
In the case of `CCCC[C@H](NC(=O)[C@H](Cc1c[nH]c2ccccc12)NC(=O)Cn1cc([C@H](Cc2ccc(O)cc2)NC(=O)[C@H](C)NC(=O)[C@@H](CCC(=O)O)NC(=O)CN2CCN(CC(=O)O)CCN(CC(=O)O)CCN(CC(=O)O)CC2)nn1)C(=O)N[C@@H](CC(=O)O)C(=O)N[C@@H](Cc1ccccc1)C(N)=O` [TZMG 6, DOTA-DGlu-Ala-Tyr-Ψ[Tz]-Gly-Trp-Nle-Asp-Phe-NH2] ({DOTA}-[dE]A[X1]W[Nle]DF-NH2), the stability in plasma result in the series “Blood plasma stability” was “reduced stability”.
`CCCC[C@H](NC(=O)[C@H](Cc1c[nH]c2ccccc12)NC(=O)Cn1cc([C@H](Cc2ccc(O)cc2)n2cc([C@H](C)n3cc([C@@H](CCC(=O)O)NC(=O)CN4CCN(CC(=O)O)CCN(CC(=O)O)CCN(CC(=O)O)CC4)nn3)nn2)nn1)C(=O)N[C@@H](CC(=O)O)C(=O)N[C@@H](Cc1ccccc1)C(N)=O` [TZMG 876, DOTA-DGlu-Ψ[Tz]-Ala-Ψ[Tz]-Tyr-Ψ[Tz]-Gly-Trp-Nle-Asp-Phe-NH2]: in the series “Blood plasma stability”, the stability in plasma entry is recorded as “significantly higher stability”.
Take “DOTA-(DGlu)5-DGlu-Ψ[Tz]-Ala-Tyr-Ψ[Tz]-Gly-Trp-Nle-Asp-Phe-NH2 [NMG 86]”: in the series on A431-CCK2R cells (setting [1]), the “cell internalization after 4 h” value is on record as “higher” and the cell internalization kinetics entry was “faster”. Further, in the series “Blood plasma stability”, the “stability in plasma over 24 hours” value is recorded as “high stability”.
With “DOTA-DGlu-DGlu-DGlu-DGlu-DGlu-DGlu-Ala-Tyr-Gly-Trp-Met-Asp-Phe-NH2 [PP-F11]”, the “accumulation in the tumor” value in the series on CCK2R-positive tumors ([^177Lu]Lu-PP-F11) is “high favorable accumulation”. Moreover, the “accumulation in the kidneys” value in the series with CCK2R-positive tumors (in vivo) is listed as “low accumulation”.
On to “DOTA-DGlu-Ψ[Tz]-Ala-Tyr-Ψ[Tz]-Gly-Trp-Nle-Asp-Phe-NH2 [TZMG 86]”, for which, in the series with A431-CCK2R cells (setting [2]), the “cell internalization after 4 h” value is “higher” and the cell internalization kinetics result is listed as “faster”. For the same molecule, the stability in plasma result in “Blood plasma stability” was “significantly higher stability”.
